Consider two molecules from patent publication US8557851B2, “Combinations of flupirtine and sodium channel inhibiting substances for treating pains” (MEDA Pharma GmbH & Co. KG, priority 2003, dated 2013).

Experiment [1] deals with reserpine-induced skeletal muscle rigidity. Nature of the experiment: Muscle-relaxing effect on reserpine-induced muscular rigidity in rats. Type of experiment: in vivo, rat (male Sprague-Dawley). The settings on record: Rattus norvegicus, ip, read-out: ED50, reduction of reserpine-induced skeletal muscle rigidity. As for the experimental part: Male Sprague-Dawley rats weighing 200-220 g were kept in groups of two under standard conditions (temperature 22° C., humidity 40-60%) without any restriction in food or water. Illumination was provided from 6 a.m. to 6 p.m. The experiments were approved by the local animal health committee which was responsible for the protection and proper use of experimental animals.
The experimental approach has already been described in detail (Nickel et al. Arzn Forsch/Drug Res 1997; 47:1081-6). In brief, the rigidity of the skeletal muscle was measured by consecutively measuring the resistance of the flexor and extensor muscles which act in opposition when stretching and bending the foot in the joint. The pressure differences which were generated by the movement of the foot were recorded continuously. The signals were analyzed using a PC program which calculated the resistances of the flexor and extensor at the foot over periods of 10 min.
The active compounds were prepared freshly every day and were administered simultaneously i.p. at various doses 16 h after the reserpine injection (2 mg/kg, intraperitoneally).
The statistical analysis of the differences between the calculated and measured values was performed by means of a one-way. ANOVA. Asterisks (*) denote the significant level p<0.01.

Experiment [2] deals with skeletal muscle tone of conscious mice. In words: Skeletal muscle tone in mice in the inclined screen test. Type of experiment: in vivo, mouse (NMRI). The following applies: Mus musculus, ip, single substance, read-out: ED50, decrease of skeletal muscle tone (inclined screen test). As to the method:
NMRI mice weighing 22-24 g were kept in groups of four under standard conditions (temperature 22° C., humidity 40-60%) without any restriction in food and water. Illumination was provided from 6 a.m. to 6 p.m. All the experiments were approved by the local animal health committee which was responsible for the protection and proper use of experimental animals.
What is termed the “30 degrees inclined screen test” (Simiand et al., Arch Int Pharmacodyn Ther 1989; 297:272-85) was used as a pharmacological model which enables predictions to be made regarding muscle-relaxing properties. The inclined screen consists of a wooden frame containing a wire gauze screen which can be inclined at any arbitrary angle (in this present case: […]). The lower part of the screen is located 15 cm above the table. The animals are placed on the inclined screen and their ability to remain on the inclined screen is observed over a period of 30 s. The number of animals which fall from the screen is counted and the proportion it represents of the total number in each group is calculated. The active compounds were prepared freshly every day and were administered simultaneously i.p. at various doses, at 1 h before beginning the experiments, for analyzing the skeletal muscle tone.
The statistical analysis of the differences between the calculated and measured values were performed by means of a one-way ANOVA. […]

For the molecule `CCOC(=O)Nc1ccc(NCc2ccc(F)cc2)nc1N` [flupirtine], the ED50 (in general, the midpoint of the dose-response relation) in experiment [1] was found to be 6.45 mg/kg; in experiment [2] it was 10.8 mg/kg.
Consider `Cc1ccc(C(=O)C(C)CN2CCCCC2)cc1` (stereo not shown) [tolperisone], for which the ED50 in experiment [1] came out at 32.4 mg/kg; in experiment [2] it was 51 mg/kg.
